Structures can show the parent of a compound that is named as a salt.

The assay relates to women with severe chronic bladder pain. In words: Treatment of pelvic pain of bladder origin with dextroamphetamine sulfate (two case reports). The note with it: for effect of earlier conventional therapy on bladder pain (patient's claim): before dextroamphetamine sulfate. The format is in vivo, human. An excerpt: Treatment of Pelvic Pain of Bladder Origin with Dextroamphetamine Sulfate.
Two women with severe chronic bladder pain unresponsive to conventional therapy were offered a novel therapy with dextroamphetamine sulfate. In the first patient, the bladder pain started […] in an intermittent manner for six months and then it became daily. The pain was described as a constant feeling of urgency and pain from the urethra to the bladder on walking. They scored an 18 on the pelvic pain and urging/frequency PST. A laparoscopy […] found minimal endometriosis. A cystoscopy was negative as were repeated urine cultures. […] They failed a water load test excreting only 1000 mL urine after standing 4 hours after drinking 1500 mL.
In the second patient, the pain also began intermittently for six months […]. The pain then began occurring daily and was worse with intercourse and for three days premenstrually. The pain was described as a constant feeling of pressure in the bladder with intense pain after urination. Urine cultures were negative and empirical antibiotics provided no relief. They also failed the water load test.
Dextroamphetamine sulfate spansules (10 mg) were given twice daily to the first patient and once daily to the second patient.

[1] abbreviates: first patient, spansules 10 mg twice daily.
[2] abbreviates: second patient, spansules 10 mg once daily.

As for `C[C@H](N)Cc1ccccc1` [Dextroamphetamine sulfate, dextroamphetamine sulfate], the “symptom status after being weaned off the drug” value (first patient, after 1.5 years on medication) was “remained symptom free for six months”. Moreover, under setting [1], the bladder pain response result is reported as “pain completely disappeared within two days” and the “time pain free while remaining on medication” value stood at 1.5 years. Also, the “symptoms on interruption and resumption of medication” value (second patient, forgot their pills on a short trip) is on record as “symptoms returned immediately but then disappeared immediately upon resumption of medication”. Under setting [2], the bladder pain response result is “pain decreased immediately and gradually improved daily for one week when it completely disappeared”; the “time remaining pain free” value was “remained pain free for four months”.

In the case of `CCN(CC)CC#CCOC(=O)C(O)(c1ccccc1)C1CCCCC1` (centres unmarked) [ditropan], the “effect of earlier conventional therapy on bladder pain (patient's claim)” value (first patient) was “made it worse”.

Turning to `CC(C)(C)NC(=O)[C@H]1CC[C@H]2[C@@H]3CC[C@H]4NC(=O)C=C[C@]4(C)[C@H]3CC[C@]12C` [finasteride], where the note is “first patient”, the “effect of earlier conventional therapy on bladder pain (patient's claim)” value is listed as “made it worse”.

(Values after patent publication US20060189698A1, “Treatment of interstitial cystitis” (priority 2005, published 2006).)
